# Reference: article PMC12396409, “Screening and hit evaluation of a microbial metabolite library against the pathogenic Plasmodium falciparum and Toxoplasma gondii parasites” (International Journal for Parasitology: Drugs and Drug …, 2025)
# Read-outs that look alike come from different tables or passages of the source. Where a SMILES comes first, the peptide text is derived from it. [ ]: non-standard residue; d: D form. GABA = NCCCC(=O)O
# Assays:
# [1] = tested on: T. gondii RH strain (RH-Tub-eYFP) tachyzoites; assay: microbe, parasite or virus in culture; assay type: cell-based, Toxoplasma gondii; conditions: 72 h, 72 h; for percent parasite growth at 2 µg/mL: Toxoplasma gondii
# [2] = tested on: P. falciparum 3D7 parasites; assay: P. falciparum growth inhibition assay, 2-cycle (120 h treatment), delayed-death screen and dose-response; assay type: cell-based, Plasmodium falciparum; conditions: for activity at 2 µg/mL: Plasmodium falciparum
# [3] = tested on: P. falciparum 3D7 parasites; assay: P. falciparum growth inhibition assay, 1-cycle (72 h treatment), SYBR DNA staining (library screen at 2 μg/mL and dose-response); assay type: cell-based, Plasmodium falciparum; conditions: for activity at 2 µg/mL: Plasmodium falciparum
# [4] = library screen at 2 μg/mL, % growth, replicate 1, read-out: Tg_72h_%Growth_Rep1
# [5] = library screen at 2 μg/mL, % growth, replicate 2, read-out: Tg_72h_%Growth_Rep2
# [6] = 3D7, library screen at 2 μg/mL, 120 h, % growth, replicate 1, read-out: Pf_120h_%Growth_Rep1
# [7] = 3D7, library screen at 2 μg/mL, 120 h, % growth, replicate 2, read-out: Pf_120h_%Growth_Rep2
# [8] = 3D7, library screen at 2 μg/mL, 72 h, % growth, replicate 1, read-out: Pf_72h_%Growth_Rep1
# [9] = 3D7, library screen at 2 μg/mL, 72 h, % growth, replicate 2, read-out: Pf_72h_%Growth_Rep2
# [10] = library screen at 2 μg/mL, % growth, replicate 1
# [11] = library screen at 2 μg/mL, % growth, replicate 2
# [12] = library screen at 2 μg/mL, 120 h, % growth, replicate 1
# [13] = library screen at 2 μg/mL, 120 h, % growth, replicate 2
# [14] = library screen at 2 μg/mL, 72 h, % growth, replicate 1
# [15] = library screen at 2 μg/mL, 72 h, % growth, replicate 2
# [16] = T. gondii, parasite screen 2 μg/mL, % growth, replicate 1, read-out: Tg_72h_%Growth_Rep1
# [17] = T. gondii, parasite screen 2 μg/mL, % growth, replicate 2, read-out: Tg_72h_%Growth_Rep2
structure (smiles),measurement,setting,value
C=C(C)[C@@H]1CC[C@]2(C(=O)O)CC[C@]3(C)[C@H](CC[C@@H]4[C@@]5(C)CC[C@H](O)C(C)(C)[C@@H]5CC[C@]43C)[C@@H]12 [Betulinic acid],percent parasite growth at 2 µg/mL,[1]; [4],107%
same,percent parasite growth at 2 µg/mL,[1]; [5],88%
same,activity at 2 µg/mL,[2]; [6],70.3%
same,activity at 2 µg/mL,[2]; [7],59.9%
same,activity at 2 µg/mL,[3]; [8],73.8%
same,activity at 2 µg/mL,[3]; [9],76.9%
CO[C@H]1/C=C/C=C/C=C/C[C@H](OC(=O)[C@@H](C)NC(=O)C2CCCCC2)[C@H](C)[C@@H](O)/C(C)=C\CCC2=CC(=O)C=C(NC(=O)C1)C2=O [Ansatrienin A],Tg_72h_%Growth_Rep1,[1]; [10],38.64%
same,Tg_72h_%Growth_Rep2,[1]; [11],44.79%
same,Pf_120h_%Growth_Rep1,[2]; [12],4.00%
same,Pf_120h_%Growth_Rep2,[2]; [13],-9.91%
same,Pf_72h_%Growth_Rep1,[3]; [14],2.60%
same,Pf_72h_%Growth_Rep2,[3]; [15],3.94%
CC(C)[C@H]1NC(=O)[C@H](Cc2ccccc2)NC(=O)[C@@H](C(C)C)NC(=O)[C@@H](C)NC(=O)CCCNC(=O)[C@@H](Cc2c[nH]c3ccccc23)NC(=O)[C@@H](C)NC1=O [Unguisin A] (cyclo(F[dV][dA][dW][GABA][dA][dV])),Tg_72h_%Growth_Rep1,"[1]; T. gondii, screen at 2 μg/mL, replicate 1",121.37%
same,Tg_72h_%Growth_Rep2,"[1]; T. gondii, screen at 2 μg/mL, replicate 2",69.01%
same,Pf_120h_%Growth_Rep1,"[2]; P. falciparum, 120 h, screen at 2 μg/mL, replicate 1",110.43%
same,Pf_120h_%Growth_Rep2,"[2]; P. falciparum, 120 h, screen at 2 μg/mL, replicate 2",-17.05%
same,Pf_72h_%Growth_Rep1,"[3]; P. falciparum, 72 h, screen at 2 μg/mL, replicate 1",89.83%
same,Pf_72h_%Growth_Rep2,"[3]; P. falciparum, 72 h, screen at 2 μg/mL, replicate 2",117.62%
O=C1NCc2nc3ccccc3c(=O)n2-c2ccccc21 [Sclerotigenin],percent parasite growth at 2 µg/mL,[1]; [16],82%
same,percent parasite growth at 2 µg/mL,[1]; [17],103%
same,activity at 2 µg/mL,"[2]; 3D7, P. falciparum, 120 h, parasite screen 2 μg/mL, % growth, replicate 1, read-out: Pf_120h_%Growth_Rep1",169%
same,activity at 2 µg/mL,"[2]; 3D7, P. falciparum, 120 h, parasite screen 2 μg/mL, % growth, replicate 2, read-out: Pf_120h_%Growth_Rep2",96.5%
same,activity at 2 µg/mL,"[3]; 3D7, P. falciparum, 72 h, parasite screen 2 μg/mL, % growth, replicate 1, read-out: Pf_72h_%Growth_Rep1",90.7%
same,activity at 2 µg/mL,"[3]; 3D7, P. falciparum, 72 h, parasite screen 2 μg/mL, % growth, replicate 2, read-out: Pf_72h_%Growth_Rep2",89.5%
O=C1C=C2C=C[C@@H]3C[C@@]2(O1)[C@H]1CCCCN31 [Securinine],percent parasite growth at 2 µg/mL,[1]; [16],46.1%
same,percent parasite growth at 2 µg/mL,[1]; [17],60.2%
same,activity at 2 µg/mL,"[2]; 3D7, 120 h, P. falciparum, 120 h, parasite screen 2 μg/mL, % growth, replicate 1, read-out: Pf_120h_%Growth_Rep1",14.2%
same,activity at 2 µg/mL,"[2]; 3D7, 120 h, P. falciparum, 120 h, parasite screen 2 μg/mL, % growth, replicate 2, read-out: Pf_120h_%Growth_Rep2",10.7%
same,activity at 2 µg/mL,"[3]; 3D7, 72 h, P. falciparum, 72 h, parasite screen 2 μg/mL, % growth, replicate 1, read-out: Pf_72h_%Growth_Rep1",19.3%
same,activity at 2 µg/mL,"[3]; 3D7, 72 h, P. falciparum, 72 h, parasite screen 2 μg/mL, % growth, replicate 2, read-out: Pf_72h_%Growth_Rep2",10.7%
COc1c(CC(C)O)c2c3c(CC(C)O)c(OC)c(=O)c4c(O)cc5c(c6c(cc(O)c(c1=O)c62)OCO5)c43 (stereo not drawn) [Cercosporin],percent parasite growth at 2 µg/mL,"[1]; T. gondii, screen at 2 μg/mL, replicate 1, read-out: Tg_72h_%Growth_Rep1",4.15%
same,percent parasite growth at 2 µg/mL,"[1]; T. gondii, screen at 2 μg/mL, replicate 2, read-out: Tg_72h_%Growth_Rep2",11.5%
same,activity at 2 µg/mL,"[2]; 3D7, P. falciparum, 120 h, screen at 2 μg/mL, replicate 1, read-out: Pf_120h_%Growth_Rep1",7.99%
same,activity at 2 µg/mL,"[2]; 3D7, P. falciparum, 120 h, screen at 2 μg/mL, replicate 2, read-out: Pf_120h_%Growth_Rep2",4.28%
same,activity at 2 µg/mL,"[3]; 3D7, P. falciparum, 72 h, screen at 2 μg/mL, replicate 1, read-out: Pf_72h_%Growth_Rep1",9.71%
same,activity at 2 µg/mL,"[3]; 3D7, P. falciparum, 72 h, screen at 2 μg/mL, replicate 2, read-out: Pf_72h_%Growth_Rep2",9.49%
Cc1cc(O)c(O)c2oc(=O)c3c(O)cc(O)cc3c12 [BIA-H1558],Tg_72h_%Growth_Rep1,"[1]; T. gondii RH, library screen at 2 μg/mL, % growth, replicate 1",100.18%
same,Tg_72h_%Growth_Rep2,"[1]; T. gondii RH, library screen at 2 μg/mL, % growth, replicate 2",87.83%
same,Pf_120h_%Growth_Rep1,"[2]; P. falciparum 3D7, 120 h, library screen at 2 μg/mL, % growth, replicate 1",93.99%
same,Pf_120h_%Growth_Rep2,"[2]; P. falciparum 3D7, 120 h, library screen at 2 μg/mL, % growth, replicate 2",107.81%
same,Pf_72h_%Growth_Rep1,"[3]; P. falciparum 3D7, 72 h, library screen at 2 μg/mL, % growth, replicate 1",87.28%
same,Pf_72h_%Growth_Rep2,"[3]; P. falciparum 3D7, 72 h, library screen at 2 μg/mL, % growth, replicate 2",114.26%
C=C1CCO[C@]2([C@@H](O)[C@@](C)(O)CO)NC(=O)[C@@]1(O)NC2=O [Bicyclomycin],percent parasite growth at 2 µg/mL,[1]; [4],126%
same,percent parasite growth at 2 µg/mL,[1]; [5],100%
same,activity at 2 µg/mL,[2]; [6],102%
same,activity at 2 µg/mL,[2]; [7],86.7%
same,activity at 2 µg/mL,[3]; [8],82.6%
same,activity at 2 µg/mL,[3]; [9],88%
CCCC[C@H](O)[C@@H]1CC(OC)=CC(=O)O1 [BIA-P1067],Tg_72h_%Growth_Rep1,"[1]; T. gondii, parasite screen at 2 μg/mL, % growth, replicate 1",91.14%
same,Tg_72h_%Growth_Rep2,"[1]; T. gondii, parasite screen at 2 μg/mL, % growth, replicate 2",92.83%
same,Pf_120h_%Growth_Rep1,"[2]; P. falciparum 3D7, 120 h, parasite screen at 2 μg/mL, % growth, replicate 1",77.65%
same,Pf_120h_%Growth_Rep2,"[2]; P. falciparum 3D7, 120 h, parasite screen at 2 μg/mL, % growth, replicate 2",111.54%
same,Pf_72h_%Growth_Rep1,"[3]; P. falciparum 3D7, 72 h, parasite screen at 2 μg/mL, % growth, replicate 1",81.23%
same,Pf_72h_%Growth_Rep2,"[3]; P. falciparum 3D7, 72 h, parasite screen at 2 μg/mL, % growth, replicate 2",52.23%
COC[C@@H](C[C@H]1O[C@@](O)([C@H](O)[C@@H]2C[C@H](OC)[C@@H](O)CC/C=C(C)/C=C/[C@@H](O[C@@H]3O[C@@H](C)[C@H](OC)[C@@H](O)[C@@H]3O)[C@H](C)/C=C(C)/C=C(C)/C=C(\C)C(=O)O2)[C@H](C)[C@@H](O)[C@H]1C)OC1C[C@](C)(O)[C@@H](O[C@H]2C[C@@H](OC)[C@H](O)[C@@H](C)O2)[C@H](C)O1 (stereo partly drawn) [Apoptolidin],percent parasite growth at 2 µg/mL,[1]; [4],76.4%
same,percent parasite growth at 2 µg/mL,[1]; [5],73%
same,activity at 2 µg/mL,"[2]; 3D7, 120 h, library screen at 2 μg/mL, 120 h, % growth, replicate 1, read-out: Pf_120h_%Growth_Rep1",34.5%
same,activity at 2 µg/mL,"[2]; 3D7, 120 h, library screen at 2 μg/mL, 120 h, % growth, replicate 2, read-out: Pf_120h_%Growth_Rep2",23.8%
same,activity at 2 µg/mL,"[3]; 3D7, 72 h, library screen at 2 μg/mL, 72 h, % growth, replicate 1, read-out: Pf_72h_%Growth_Rep1",59%
same,activity at 2 µg/mL,"[3]; 3D7, 72 h, library screen at 2 μg/mL, 72 h, % growth, replicate 2, read-out: Pf_72h_%Growth_Rep2",49.8%
C=C1CC[C@H]2C(C)(C)CCC[C@]2(C)[C@H]1C[C@@]12C[C@H]3C(=O)N4CCC=C4C(=O)N3[C@@H]1Nc1ccccc12 [Drimentine B],Tg_72h_%Growth_Rep1,[1]; [10],108.85%
same,Tg_72h_%Growth_Rep2,[1]; [11],84.36%
same,Pf_120h_%Growth_Rep1,[2]; [12],84.09%
same,Pf_120h_%Growth_Rep2,[2]; [13],80.10%
same,Pf_72h_%Growth_Rep1,[3]; [14],74.87%
same,Pf_72h_%Growth_Rep2,[3]; [15],73.00%
